From patent US20250367283A1, “MEVALONATE PATHWAY INHIBITOR AS HIGHLY-EFFICIENT VACCINE ADJUVANT” (Tsinghua University, priority 2015, published 2025)

What was measured:
[1] = system: MDA-MB-231 cells; assay: MDA-MB-231 proliferation MTT test; format: cell-based, human; details: 72 hours
Protocol: • Drug dissolution: […] The prepared bisphosphonate stock solution was diluted with DMEM complete medium. The maximum concentration was 1 mM. The dilution was performed serially in a ratio of 1:3.2 with a total of 11 concentration gradients; a. MDA-MB-231 cells were digested the day before. Centrifugation was performed at 1000 rmp for 3 min. The cells were counted. The cells were seeded into a 96-well plate at 3000 cells/well in a volume of 100 μl per well and cultured for 14-16 h. It should be noted that the cell count should be accurate, and the amount of cells seeded per well should be consistent. The cell suspension can be gently shaken in the intermittence of plating, or a row of cells were plated and the cell suspension was pipetted gently with a pipette. The speed of pipetting into the 96-well plate with a pipette should not be too fast or too slow, in order to avoid uneven distribution of cells in the plate, affecting the experiments; the wells at the fringe of the 96-well plate will evaporate slightly faster and the concentration of the solution will change slightly faster. Under normal situation, the central 60 wells should be selected for stimulation. Also, the pipetted liquid should be prevented from creating bubbles. b. After the cells had adhered, the liquid in the 96-well plate was pipetted out and discarded. […] c. 72 hours after the action of drug, the prepared MTT solution (immediately before use, a certain amount of MTT powder was weighed and dissolved in PBS at 5 mg/ml, under dark, filter with 0.22 filter membrane) was added directly to each well with 20 μl per well and continued to culture for 4 hours; d. The filter paper (which can be replaced by an absorbent paper) was laid, and the plate was inverted gently (be careful to prevent the crystal in the well from dropping). After the liquid in the wells was removed, 150 μl of DMSO was added to dissolve the crystals, and the mixture was shaken thoroughly with a shaker for a period of time just to dissolve the crystals. The absorbance (OD value) of each well was measured at 570 nm with ELIASA. The mean value of blank control was calculated as OD Blank. OD value for each well=OD measured-OD Blank. ODNT mean value was calculated. […] Mean and standard error were then calculated. The mean and standard error of each group of drug concentration (uM) and corresponding drug inhibition rate were fitted by Graph Prism software to obtain the IC50 of the drug.

[2] = system: anti-OVA IgM and IgG antibodies; assay: Rescue experiment of GGPP and GGOH on adjuvant activity; format: in vivo, mice; details: for effect of GGPP and GGOH on adjuvant effects: GGPP and GGOH added; for IgG and IgM antibody titers vs PBS control: without addition of GGPP or GGOH
Protocol: In particular, we investigated the effect of GGOH and GGPP on the adjuvant activity of simvastatin (HMG-COA reductase inhibitor), TH-Z93 (FPPS inhibitor), and TH-Z145 (GGPPS inhibitor).
Method: Simvastatin, TH-Z93 and TH-Z145 were formulated at a concentration of 10 mg/ml; the concentration of OVA antigen was 20 mg/ml; and GGOH and GGPP were formulated into a series of solutions at concentrations of 200 mg/ml, 100 mg/ml, 40 mg/ml and 20 mg/ml, respectively. For the experimental group, on the one hand, titers of antibodies were measured when immunization was performed without adding GGOH or GGPP while only mixing 10 μl of test compound and 5 μl of OVA antigen. On the other hand, titers of antibodies were measured when immunization was performed after adding GGOH or GGPP; specifically, 10 μl of test compound, 5 μl of OVA antigen and 5 μl of each concentration of GGOH or GGPP (total volume of 20 μl) were mixed and used for immunization in mice by injection at the sole of the right feet. Mice in the control group were treated with PBS and the antigen only, without addition of test compounds and GGOH or GGPP. On Day 7 and Day 14 after immunization, blood was taken from the mice's orbit, and 100 μl was taken for each mouse. The obtained blood was left at 4° C. overnight. The serum was separated, and titers of anti-OVA IgM and IgG antibodies in the serum were determined.

Molecule	IC50 [1]	effect of GGPP and GGOH on adjuvant effects [2]	IgG and IgM antibody titers vs PBS control [2]
CCCCCCOc1ccc2c(c1)ncn2CC(O)(P(=O)(O)O)P(=O)(O)O [TH-Z80]	75.5 µM		
CCCCCCCCOc1ccc2c(c1)ncn2CC(O)(P(=O)(O)O)P(=O)(O)O [TH-Z81]	59.6 µM		
CCCCCCOc1ccnc(NC(P(=O)(O)O)P(=O)(O)O)c1 [TH-Z93, (((4-(hexyloxy)pyridin-2-yl)amino)methylene)bisphosphonic acid]		effectively inhibit adjuvant effects	significantly higher
CCCCCCCOc1ccc2c(c1)ncn2CC(O)(P(=O)(O)O)P(=O)(O)O [TH-Z152]	428 µM		
CCCCCCCCCOc1ccc2c(c1)ncn2CC(O)(P(=O)(O)O)P(=O)(O)O [TH-Z153]	234 µM		
CCC(C)(C)C(=O)O[C@H]1C[C@@H](C)C=C2C=C[C@H](C)[C@H](CC[C@@H]3C[C@@H](O)CC(=O)O3)[C@H]21 [simvastatin, reference compound]		effectively inhibit adjuvant effects	significantly higher
(2-(3-(octyloxy)phenyl)ethane-1,1-diyl)bisphosphonic acid [TH-Z145]		effectively inhibit adjuvant effects	significantly higher
